Assay results from PubChem BioAssay (NCI).
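Dose response: 5 concentrations. Exposure: 48 h. Format: 96-well plates. Endpoint: linear interpolation; highest concentration if not reached. Here, GI50 denotes the concentration required for 50% inhibition of growth. Definition used: TGI = concentration required for complete inhibition of growth.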

Key:
Experiment in all cases: DTP human tumour cell line panel, 48 h
HCT-116 colon = test system: HCT-116 colon
MALME-3M melanoma = test system: MALME-3M melanoma
NCI-H460 lung = test system: NCI-H460 lung
RPMI-8226 leukemia = test system: RPMI-8226 leukemia
RXF 393 renal = test system: RXF 393 renal
SK-MEL-5 melanoma = test system: SK-MEL-5 melanoma
SN12C renal = test system: SN12C renal
SNB-19 CNS = test system: SNB-19 CNS
SR leukemia = test system: SR leukemia
HS 578T breast = test system: HS 578T breast

Compound	TGI (HCT-116 colon) [µM]	TGI (MALME-3M melanoma) [µM]	TGI (NCI-H460 lung) [µM]	TGI (RPMI-8226 leukemia) [µM]	TGI (RXF 393 renal) [µM]	TGI (SK-MEL-5 melanoma) [µM]	TGI (SN12C renal) [µM]	TGI (SNB-19 CNS) [µM]	TGI (SR leukemia) [µM]	GI50 (HCT-116 colon) [µM]	GI50 (MALME-3M melanoma) [µM]	GI50 (NCI-H460 lung) [µM]	GI50 (RPMI-8226 leukemia) [µM]	GI50 (RXF 393 renal) [µM]	GI50 (SK-MEL-5 melanoma) [µM]	GI50 (SN12C renal) [µM]	GI50 (SNB-19 CNS) [µM]	GI50 (SR leukemia) [µM]	GI50 (HS 578T breast) [µM]	TGI (HS 578T breast) [µM]
Cc1c(C)c2cc3c(=O)c(CCl)coc3c(C)c2oc1=O	> 100	> 100	> 100	> 100	> 100	> 100	> 100	> 100	–	–	–	–	–	–	–	–	–	–	–	–
Cn1cc(-c2ccc3c4ccccc4n(C)c3c2)c2ccccc21	> 100	> 100	> 100	> 100	> 100	> 100	> 100	> 100	–	–	–	–	–	–	–	–	–	–	–	–
C=CC[P@]1(=O)O[C@H](c2ccccc2)C(C)N1C(C)C (some centres undefined)	> 100	> 100	> 100	> 100	> 100	> 100	> 100	> 100	> 100	–	–	–	–	–	–	–	–	–	–	–
Cc1nc(-n2nc(-c3ccccc3)cc2-c2ccccc2)sc1C(=O)CC(=O)C(=O)Nc1ccc(Cl)c(Cl)c1	> 100	> 100	> 100	> 100	> 100	–	> 100	> 100	> 100	–	–	–	–	–	–	–	–	–	–	–
COc1ccc2c(c1OC)C(=O)C2	> 100	> 100	> 100	> 100	> 100	> 100	> 100	> 100	> 100	–	–	–	–	–	–	–	–	–	–	–
N.N.N.N.N#N.N#N.[Cl-].[Os+6]	> 100	> 100	> 100	> 100	> 100	> 100	> 100	> 100	> 100	> 100	> 100	> 100	> 100	> 100	> 100	> 100	> 100	> 100	–	–
CC(=O)OC1(Sc2ccccc2)CC2[C@H]3COC(C)(C)O[C@H]3CC[C@@]2(C)CC1=O (some centres undefined)	> 100	> 100	> 100	69.7	> 100	70	> 100	> 100	45.4	–	–	–	–	–	–	–	–	–	–	–
C=CCCC(O)c1cc(C)c(O)c(C)c1 (centres undefined)	–	> 100	> 100	> 100	> 100	> 100	> 100	> 100	–	–	–	–	–	–	–	–	–	–	–	–
COc1ccc(-n2cc(-c3cc(OC)c(OC)c(OC)c3)nc2SCc2cccc(C#N)c2)cc1OC	> 100	> 100	> 100	> 100	–	> 100	> 100	> 100	–	46	> 100	> 100	> 100	–	71.8	> 100	> 100	–	62.2	> 100
CC1=CC(=O)NP(=O)(Oc2ccc(Cl)cc2)N1 (centres undefined)	> 100	> 100	> 100	> 100	> 100	> 100	> 100	> 100	> 100	–	–	–	–	–	–	–	–	–	–	–
O=S(=O)(F)Cc1ccccc1	> 100	70	> 100	> 100	–	> 100	> 100	> 100	> 100	–	–	–	–	–	–	–	–	–	–	–
COc1ccc2c(=O)c(-c3cc(OC)c(OC)cc3OC)coc2c1	> 100	> 100	> 100	> 40.3	24.2	> 100	> 100	> 100	> 100	–	–	–	–	–	–	–	–	–	–	–
O=C1/C(=C/c2ccc(F)cc2)COc2ccc(O)c(O)c21	4.98	4.34	> 100	0.714	3.64	11.7	3.79	15.8	–	1.87	1.68	3.33	0.26	1.85	3.16	1.26	3.36	–	3.5	> 100
CN(C)CCNC(=O)c1ccc2c(c1)oc1cc3ccccc3c(=O)n12	29.4	43.7	25.7	> 100	36.6	39.9	30.6	48.7	> 100	16	23.4	7.5	31	19.6	23.3	15.4	25.9	13.4	–	–
S=C1SCC2CCCN12 (centres undefined)	> 100	> 100	> 100	> 100	> 100	> 100	> 100	> 100	> 100	–	–	–	–	–	–	–	–	–	–	–
CC(=O)/C=C1\CC(=O)N(C)c2ccccc2N1	> 100	> 100	> 100	–	> 100	2.05	> 100	> 100	> 100	–	–	–	–	–	–	–	–	–	–	–
COc1ccc(/C=C\c2cc(OC)c(OC)c(OC)c2)cc1NC(=O)/C=C/c1ccc(OC)c(OC)c1	> 100	> 100	> 100	> 100	–	> 100	> 100	> 100	> 100	4.35	> 100	3.46	3.95	–	2.89	5.43	4.15	0.412	–	–
O=C1NC(c2ccccc2)(c2ccccc2)C(=O)N1CCCCCCN1C(=O)NC(c2ccccc2)(c2ccccc2)C1=O	–	85.2	> 100	> 100	–	57.9	> 100	72.1	–	–	–	–	–	–	–	–	–	–	–	–
COC1CCCc2c(OC(C)=O)ccc(OC(C)=O)c21 (centres undefined)	> 100	> 100	–	–	> 100	> 100	> 100	> 100	> 100	–	–	–	–	–	–	–	–	–	–	–
COc1ccccc1/C=C1\C(=O)N(C(=O)Cc2ccccc2)N=C1C	> 100	> 100	> 100	> 100	–	> 100	> 100	> 100	> 100	–	–	–	–	–	–	–	–	–	–	–
CCOC(=O)c1ccc(N=Cc2ccc(N(CCC#N)S(=O)(=O)c3ccccc3)cc2C)cc1	> 100	> 100	–	> 100	–	> 100	> 100	> 100	–	–	–	–	–	–	–	–	–	–	–	–
